Patent US6875884B1, “Urea derivatives as inhibitors for CCR-3 receptor” (Kirin Beer Kabushiki Kaisha, priority 1999, dated 2005)

Key:
[1] = test system: collagen-induced arthritis; experiment: Type II collagen-induced arthritis in mice, clinical score; type: in vivo; conditions: male DBA/1 mice, 20 mg/kg per day subcutaneously starting at 2nd immunization, versus control vehicle
[2] = target: T1, CCR-3 (Homo sapiens, UniProt P51677); experiment: Inhibition of eotaxin-induced intracellular calcium mobilization in CCR-3 transfectant cells (CCR3/HEK293); type: cell-based; design: expressed in transfected cells; conditions: compound 6.25 μg/ml, eotaxin 10 nM
T1 sequence (P51677 1-355): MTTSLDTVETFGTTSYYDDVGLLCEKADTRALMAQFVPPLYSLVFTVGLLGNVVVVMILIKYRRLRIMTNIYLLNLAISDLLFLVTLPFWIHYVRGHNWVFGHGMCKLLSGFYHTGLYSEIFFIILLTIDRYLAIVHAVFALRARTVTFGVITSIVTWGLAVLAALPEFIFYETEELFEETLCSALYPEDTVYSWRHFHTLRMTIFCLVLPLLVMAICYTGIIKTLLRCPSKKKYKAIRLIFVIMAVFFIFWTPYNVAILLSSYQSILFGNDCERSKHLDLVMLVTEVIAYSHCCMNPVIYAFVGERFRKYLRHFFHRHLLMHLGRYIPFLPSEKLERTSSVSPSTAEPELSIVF
Description: Compounds 93-162 used in this assay were synthesized by using the method described in Example 6, and Compounds 168-170 were synthesized by using the method described in Example 6 except for the use of isothiocyanates instead of isocyanates in step 6.
CCR-3 transfectant cells (CCR3/HEK293) were isolated and resuspended with assay buffer (20 mM HEPES, 125 mM NaCl, 5 mM KCl, 0.5 mM glucose, 1 mM CaCl2, 1 mM MgCl2, 0.1% BSA). After washing CCR3/HEK293 cells with assay buffer, cells were loaded with Fura-2/AM in assay buffer for 1 hour at room temperature. Cells were washed and resuspended with assay buffer at 5×10^6 cells/ml in assay buffer, and placed in a tissue culture plate (Falcon, no. 3296). Test compounds dissolved in DMSO were added to the wells, followed by eotaxin (10 nM at final concentration). Cells were excited at 340 nm and 380 nm in a fluorimeter (ARGUS50,FDSS2000, Hamamatsu Photonics) and the relative ratio of the fluorescence emitted at 510 nm was recorded. For a control, DMSO without a test compound was added. Intracellular calcium mobilization was calculated as described in Krogel C. et al., FEBS Let. (1989) 243, 41-46.

[3] = test system: bronchoconstriction provoked by acetylcholine; experiment: Airway hyperreactivity: bronchoconstriction provoked by acetylcholine (murine asthma model); type: in vivo; conditions: OVA-immunized male BALB/c mice, intraperitoneally for 9 days, FIG. 2A
Description: (§1) Male BALB/c mice were immunized by an intraperitoneal injection of 10 μg OVA adsorbed to 1 mg aluminum hydroxide gel (alum). A booster injection of the same dose of alum-adsorbed OVA was given 5 days later. Unimmunized control mice received saline.
(§2) Twelve days after primary immunization, both the immunized and unimmunized mice were exposed to aerosolized antigen. Aerosolization of OVA was performed using a nose-only aerosol chamber adapted for mice. Animals were exposed for 10 minutes to 5 mg/ml OVA aerosolized by an ultrasonic nebulizer (NE-U12, Omron, Tokyo, Japan) driven by a vacuum pump. The antigen bronchoprovocation was repeated on day 16 and day 20 under the same conditions. Compound No. 298 (CPD No. 298) was dissolved in saline containing 2% DMSO and 2% Cremophore and administered intraperitoneally for 9 days, starting on the first day of antigen inhalation.
Twenty-four hours after the final aerosol exposure, bronchoconstriction was measured by the overflow method of Konzett and Rōssler. […] Bronchoconstriction was recorded on a flatbed recorder (Model FBR-252A, TOA Electronics Ltd., Tokyo, Japan). […]

[4] = test system: eosinophil infiltration to BALF; experiment: Eosinophil infiltration to bronchoalveolar lavage fluid (BALF) in OVA-immunized mice; type: in vivo; conditions: OVA-immunized male BALB/c mice, intraperitoneally for 9 days, FIG. 2C
Description: as §1, §2
Immediately after the measurement of airway reactivity to acethycholine, BALF was collected by lavaging whole-lung three times with 0.7-ml aliquots of physiological saline containing 0.1% BSA via the tracheal cannula while gently massaging the thorax. The BALF recovered from one mouse was pooled, centrifuged, and the cells were resuspended in 100 μl saline containing 0.1% BSA. Cell numbers were determined using a hemocytometer and 2×10^4 cells were cytecetrifuged onto a glass slide. […]

Ca^2+ mobilization 6.25 μg/ml (inhibition %) [2] [%] | SMILES | clinical score of collagen-induced arthritis [1] | bronchoconstriction provoked by acetylcholine [3] | eosinophil infiltration to bronchoalveolar lavage fluid (BALF) [4]
 | O=C(O)CCCN(CCCNC(=O)Nc1ccc(Br)cc1)C1CCCc2ccccc21 (stereo not shown) [Compound 60, 4-[[3-(4-Bromophenylureido)propyl](1,2,3,4-tetrahydro-1-naphthyl)amino]butanoic acid] | marked prevention in clinical score |  | 
23 | COc1ccc(NC(=S)NCCCN(CCCC(=O)O)C2CCCc3ccccc32)cc1 (stereo not shown) [Compound 168] |  |  | 
48 | O=C(O)CCCN(CCCNC(=S)Nc1ccc(OCc2ccccc2)cc1)C1CCCc2ccccc21 (stereo not shown) [Compound 169] |  |  | 
45 | O=C(O)CCCN(CCCNC(=S)Nc1ccc(OC(F)(F)F)cc1)C1CCCc2ccccc21 (stereo not shown) [Compound 170] |  |  | 
 | CC[N+](CCCNC(=O)Nc1ccccc1)(CCc1ccc(Cl)cc1)Cc1ccc(Cl)cc1.[I-] (stereo not shown) [Compound 298, [3-(Phenylureido)propyl][2(4-chlorophenyl)ethyl](4 chlorobenzyl)ethylammonium iodide] | marked prevention in clinical score | Inhibition of bronchoconstriction | significantly suppressed eosinophil infiltration
